The source of these data is US20210077585A1, “METHOD OF TREATMENT OF IMMUNE CHECKPOINT INHIBITOR-RELATED IMMUNE ADVERSE EFFECTS” (priority 2019, published 2021).

Entries after “also recorded” stand apart in the source; their conditions may differ. No end group written: not given here.

Assay [1] concerns murine model of checkpoint inhibitor-mediated colitis (CIC). The assay can be described thus: Checkpoint inhibitor-mediated colitis (CIC) model (DSS + anti-CTLA-4 mAb) in mice. Format: in vivo, C57BL6 mice. How it is done:
(§1) Inbred C57BL6 mice, 8 to 12 weeks old, were purchased from Charles River Breeding Laboratories (Calco, Italy). Experiments were performed following protocols approved by the institutional animal committee and in accordance with European Economic Community Council Directive as well as institutional animal care and use guidelines.
The mice received 3% DSS in their drinking water for 8 days and 100 μg of anti-CTLA-4 mAb (BioXcell, USA) or isotype control antibody intraperitoneally at the beginning of the experiment (day 0) and 4 days after (day +4). Surviving mice were sacrificed at 16 days. Tα1 at 200 μg/kg was intraperitoneally injected every other day, as illustrated in FIG. 2A.
(§2) In both models, animals were monitored daily for appearance of diarrhea, fecal blood, loss of body weight and survival. At the end of the experiment, surviving mice were sacrificed, the colon was excised, and evaluated for macroscopic damage and local immune parameters
(§3) Freshly isolated colons were fixed in formalin and embedded in paraffin. H&E staining was performed using a standard protocol. For the quantitative histological analysis, five criteria were used to grade each section of the intestine: (i) severity of inflammation, (ii) percent of area affected by inflammation, (iii) degree of hyperplasia, (iv) depth of the lesion, and (v) ulceration.
(§4) Student's t-test, one- or two-way ANOVA with Bonferroni post-hoc test were used to determine the statistical significance. Significance was defined as p<0.05. Data are pooled results (mean±SEM) or representative images from three experiments.

In assay [2] the test system is murine dextran sodium sulfate (DSS)-induced colitis. The assay can be described thus: Dextran sodium sulfate (DSS)-induced colitis in mice. Format: in vivo, C57BL6 mice. The protocol:
as §1
DSS is a water soluble, negatively charged sulfated polysaccharide with a highly variable molecular weight ranging from 5 to 1400 kDa. Murine colitis results from administration of 40-50 kDa DSS added to drinking water. […] We have added 40-50 kDa DSS to sterilized drinking water at 3% for a period of 6 days to induce acute colitis. Concomitantly, Tα1 at 200 μg/kg was intraperitoneally injected daily, as illustrated in FIG. 1A. Control mice receive vehicle alone. Surviving mice were sacrificed at 10 days after the initiation of colitis.
as §2, §3
The levels of cytokines in the colon homogenates were determined by specific ELISA (R&D Systems).
as §4

A further assay concerns B16 melanoma. The assay can be described thus: Tumor challenge with B16 melanoma under anti-CTLA-4 mAb. Format: in vivo, mice. The note with it: 100 μg anti-CTLA-4 mAb days 0, 6, 10 with Tα1 200 μg/kg i.p.; FIG. 2E. How it is done: B16-F0 (ATCC® CRL-6322™ were cultured in RPMI Medium1640 (Gibco, Life Technologies, USA) containing 10% FBS (Gibco, USA), 100 U/mL penicillin, and 100 μg/mL streptomycin, at 37° C. in a humidified atmosphere of 5% CO2. 2×10^5 B16 tumor cells were subcutaneously injected into the right flanks of the mice. The mice were injected intraperitoneally with 100 μg of anti-CTLA-4 mAb, at 0, 6, and 10 days post-tumor implantation and concomitantly with Tα1 at 200 μg/kg intraperitoneally. Tumor size was measured with a caliper and calculated as described (Wang et al., 2019).

The conditions of assay [3]: steroid and infliximab refractory cases; recent reports; cited from earlier work.
Setting [4] is: ELISA of colon homogenates, FIG. 1F.

Turning to “Thymosin alpha 1 (Ac-SDAAVDTSSEITTKDLKEKKEVVEEAEN; UniProt P06454 2-29, looked up) [Tα1, naturally-occurring polypeptide of 28 amino acid; from CRIBI Biotechnology, supplied as purified sterile, lyophilized, acetylated polypeptide]”, the “loss of body weight” value is reported as “not significantly prevented” in assay [1] (CIC model (3% DSS 8 days + anti-CTLA-4 mAb), Tα1 200 μg/kg i.p. every other day, FIG. 2B) and “prevented the loss of body weight” in assay [2] (3% DSS 6 days, Tα1 200 μg/kg intraperitoneally daily, FIG. 1B). In addition, the survival of mice result in assay [1] (CIC model, Tα1 200 μg/kg i.p. every other day, FIG. 2C) was “significantly increased the survival of mice”; in assay [2] (Tα1 200 μg/kg i.p. daily, FIG. 1C), “increased survival of mice”. For the same substance, in assay [1] (CIC model, compared to untreated animals, FIG. 2D), the “architecture structure of the colon in surviving mice” value is on record as “recovery of the normal architecture structure of the colon”. Further, the “mice surviving at 16 days post initiation of colitis” value in assay [1] (CIC model, time at which untreated mice have all died, FIG. 2C) is listed as “majority of mice surviving”. The “production of IL-10 in the colon” value in assay [2] (ELISA of colon homogenates, FIG. 1E) is recorded as “induced”. Further, the “production of pro-inflammatory cytokine IL-1S” value in assay [2] (setting [4]) was “decreased the production”. Moreover, the “production of pro-inflammatory cytokine IL-17A” value in assay [2] (setting [4]) is reported as “decreased the production”. Moreover, the “expression of IDO1 in the colon” value in assay [2] (RT-PCR, at sacrifice, FIG. 1E) is “induced the expression of IDO1”. In addition, in assay [2] (Tα1 200 μg/kg i.p. daily, at sacrifice, FIG. 1D), the colon histopathology entry is given as “ameliorated colon histopathology”. Moreover, the “growth kinetics of B16 melanoma tumors / antitumoral efficacy afforded by anti-CTLA-4 mAb” value in the assay on B16 melanoma was “does not affect the antitumoral efficacy; also recorded: did not affect the growth kinetics of the tumors”.

On to “Vedolizumab: therapy reported as more gut specific and efficacious in steroid and infliximab refractory checkpoint inhibitor colitis”, for which the “efficacy in refractory CIC” value in assay [3] was “efficacious in steroid and infliximab refractory cases”.
